The target in one experiment is menin protein (Homo sapiens (Human), UniProt O00255). Briefly: biochemical. In kind it is binding. To be noted: FP competitive binding; menin protein 4 nM, FAM-MM2 probe 2 nM. The procedure: A fluorescence polarization (FP) competitive binding assay was used to determine the binding affinities of representative menin inhibitors. A FAM labeled fluorescent probe was designed and synthesized based on a MLL1 peptide (FAM-MM2). Equilibrium dissociation constant (Kd) value of FAM-MM2 to menin protein was determined from protein saturation experiments by monitoring the total fluorescence polarization of mixtures composed with the fluorescent probe at a fixed concentration and the protein with increasing concentrations up to full saturation. Serial dilutions of the protein were mixed with FAM-MM2 to a final volume of 200 μl in the assay buffer (PBS with 0.02% Bovine γ-Globulin and 4% DMSO. 0.01% Triton X-100 was added right before assays). Final FAM-MM2 concentration was 2 nM. Plates were incubated at room temperature for 30 minutes with gentle shaking to assure equilibrium.
menin protein, sequence (O00255 whole entry): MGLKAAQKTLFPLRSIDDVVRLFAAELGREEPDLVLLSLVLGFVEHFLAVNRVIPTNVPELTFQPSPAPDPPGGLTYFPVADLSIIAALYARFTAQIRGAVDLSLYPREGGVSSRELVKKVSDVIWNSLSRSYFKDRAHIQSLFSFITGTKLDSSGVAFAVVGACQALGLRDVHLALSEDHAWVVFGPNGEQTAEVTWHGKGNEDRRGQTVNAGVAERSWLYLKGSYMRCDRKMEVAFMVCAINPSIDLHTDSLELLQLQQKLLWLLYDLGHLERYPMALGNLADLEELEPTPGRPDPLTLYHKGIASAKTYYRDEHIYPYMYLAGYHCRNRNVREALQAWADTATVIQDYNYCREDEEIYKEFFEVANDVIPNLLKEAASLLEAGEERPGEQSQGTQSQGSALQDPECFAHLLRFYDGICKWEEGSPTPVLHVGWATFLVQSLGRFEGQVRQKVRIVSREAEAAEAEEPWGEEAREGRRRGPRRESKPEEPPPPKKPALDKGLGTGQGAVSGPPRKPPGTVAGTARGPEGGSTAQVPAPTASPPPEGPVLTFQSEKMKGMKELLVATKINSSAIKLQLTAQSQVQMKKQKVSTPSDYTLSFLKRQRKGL
The IC50, see Table 3, and Ki values of representative Compounds of the Disclosure were determined in a competitive binding experiment. Mixtures of 5 μl of the tested compounds in DMSO and 195 μl of preincubated protein/probe complex solution in the assay buffer were added into assay plates which were incubated at room temperature for 30 minutes with gentle shaking. Final concentration of the menin protein was 4 nM, and final probe concentration is 2 nM. […] FP values were measured as described above. IC50 values were determined by nonlinear regression fitting of the competition curves.
As for `CC(=O)O[C@H]1CCC[C@@H]1C(C#N)(c1ccccc1)C1CCN(CC#Cc2ccc(C#N)cc2)CC1` (mixture of isomers) [compound 386, rac-(1S,2R)-2-(cyano(1-(3-(4-cyanophenyl)prop-2-yn-1-yl)piperidin-4-yl)(phenyl)methyl)cyclopentyl acetate], the “Menin Binding Affinity IC50 (μM)” value is “No inhibition”.
The same measure, in the same setting: with `N#Cc1ccc(OCCCNc2ccc(C(O)(c3ccccc3)C3CCCC3)cn2)cc1` (centres unmarked) [compound 125, 4-(3-((5-(cyclopentyl(hydroxy)(phenyl)methyl)pyridin-2-yl)amino)propoxy)benzonitrile] the entry was “No inhibition”.
On the same count and under the same terms, with `N#Cc1ccc(OCCCN2CC(C3(C4CCCC4)c4ccccc4CCN3CCCOc3ccc(C#N)cc3)C2)cc1` (centres unmarked) [compound 61] the entry was “No inhibition”; with `N#Cc1ccc(OCCCNc2ncc(C(O)(c3ccccc3)C3CCCC3)cn2)cc1` (centres unmarked) [compound 124, 4-(3-((5-(cyclopentyl(hydroxy)(phenyl)methyl)pyrimidin-2-yl)amino)propoxy)benzonitrile], “No inhibition”.

Staying with this experiment, now noted: FP competitive binding; menin protein 4 nM, FAM-MM2 probe 2 nM; read-out: Menin Binding Affinity IC50.
`COC(=O)N[C@@H]1CCC[C@H]1C(C#N)(c1ccccc1)C1CCN(CC2CN(c3ccc(S(=O)(=O)c4cnn(C)c4)cc3)C2)CC1` (mixture of isomers) [Cpd. No. 350, methyl (rac-(1R,2S)-2-(cyano(1-((1-(4-((1-methyl-1H-pyrazol-4-yl)sulfonyl)phenyl)azetidin-3-yl)methyl)piperidin-4-yl)(phenyl)methyl)cyclopentyl)carbamate]: the IC50 is 1.2 µM.
Turning to `C[C@H](NC(=O)O[C@H]1CCC[C@@H]1[C@](C#N)(c1ccccc1)C1CCN(CC2CN(c3ccc(S(=O)(=O)c4ccncc4)cc3)C2)CC1)c1ccccc1` [compound 217, (1S,2R)-2-((S)-cyano(phenyl)(1-((1-(4-(pyridin-4-ylsulfonyl)phenyl)azetidin-3-yl)methyl)piperidin-4-yl)methyl)cyclopentyl ((S)-1-phenylethyl)carbamate], the IC50 was 11.6 µM.
In the case of `CNC(=O)N[C@@H]1CCC[C@H]1C(CNC(=O)c1cocn1)(c1ccccc1)C1CCN(CC2CN(c3ccc(C#N)cc3)C2)CC1` (mixture of isomers) [compound 379, rac-N-(2-(1-((1-(4-cyanophenyl)azetidin-3-yl)methyl)piperidin-4-yl)-2-((1S,2R)-2-(3-methylureido)cyclopentyl)-2-phenylethyl)oxazole-4-carboxamide], the IC50 was 3.8 µM.
As for `CNC(=O)[C@H]1CCC[C@@H]1C(C#N)(c1ccccc1)C1CCN(CC2CN(c3ccc(S(=O)(=O)C4CC4)cc3)C2)CC1` (mixture of isomers) [compound 334, rac-(1S,2S)-2-(cyano(1-((1-(4-(cyclopropylsulfonyl)phenyl)azetidin-3-yl)methyl)piperidin-4-yl)(phenyl)methyl)-N-methylcyclopentane-1-carboxylate], the IC50 is 3.2 µM.
Take `CN1CCc2ccccc2C1(C1CCCC1)C1CN(CCCCCOc2ccc(C#N)cc2)C1` (centres unmarked) [compound 63, 4-((5-(3-(1-cyclopentyl-2-methyl-1,2,3,4-tetrahydroisoquinolin-1-yl)azetidin-1-yl)pentyl)oxy)benzonitrile]: the IC50 turned out to be 6 µM.
Consider `C=C(C)CC1(C2CCN(CCCOc3ccc(C#N)cc3)CC2)NCCc2ccccc21` (centres unmarked) [compound 173, 4-(3-(4-(1-(2-methylallyl)-1,2,3,4-tetrahydroisoquinolin-1-yl)piperidin-1-yl)propoxy)benzonitrile], for which the IC50 was determined as 3 µM.
As to `CCN1Cc2ccccc2C(C2CCCC2)(C2CCN(CC3CN(c4ccc(S(=O)(=O)c5ccnc(C)c5)cc4)C3)CC2)C1` (centres unmarked) [compound 154, 4-cyclopentyl-2-ethyl-4-(1-((1-(4-((2-methylpyridin-4-yl)sulfonyl)phenyl)azetidin-3-yl)methyl)piperidin-4-yl)-1,2,3,4-tetrahydroisoquinoline], the IC50 was 0.006 µM.
Take `CCS(=O)(=O)c1ccc(N2CC(CN3CCC(C4(CC(C)(C)C)NCCc5ccccc54)CC3)C2)cc1` (centres unmarked) [compound 248, 1-(1-((1-(4-(ethylsulfonyl)phenyl)azetidin-3-yl)methyl)piperidin-4-yl)-1-neopentyl-1,2,3,4-tetrahydroisoquinoline]: the IC50 is 0.8 µM.
Still for that read-out and setting: the value for `N#Cc1ccc(OCCCN2CCC(C3(C4CCC4)NCCc4ccccc43)CC2)cc1` (centres unmarked) [compound 247, 4-(3-(4-(1-cyclobutyl-1,2,3,4-tetrahydroisoquinolin-1-yl)piperidin-1-yl)propoxy)benzonitrile] was 1.1 µM; that for `N#Cc1ccc(N2CC(CN3CCC(C4(C5CCCC5)NCCc5ccccc54)CC3)C2)nc1` (centres unmarked) [compound 110, 6-(3-((4-(1-cyclopentyl-1,2,3,4-tetrahydroisoquinolin-1-yl)piperidin-1-yl)methyl)azetidin-1-yl)nicotinonitrile] was 575 µM; that for `COC(=O)N[C@@H]1CCC[C@H]1C(C#N)(c1ccccc1)C1CCN(CC2CN(c3ccc(S(=O)(=O)C4CC4)cc3)C2)CC1` (mixture of isomers) [compound 320, rac-methyl ((1R,2S)-2-(cyano(1-((1-(4-(cyclopropylsulfonyl)phenyl)azetidin-3-yl)methyl)piperidin-4-yl)(phenyl)methyl)cyclopentyl)carbamate] was 5.1 µM.
As to `CN(C)C(=O)N[C@@H]1CCC[C@H]1C(Cn1ccnc1)(c1ccccc1)C1CCN(CC2CN(c3ccc(S(=O)(=O)c4cnn(C)c4)cc3)C2)CC1` (mixture of isomers) [compound 377, rac-3-((1R,2S)-2-(2-(1H-imidazol-1-yl)-1-(1-((1-(4-((1-methyl-1H-pyrazol-4-yl)sulfonyl)phenyl)azetidin-3-yl)methyl)piperidin-4-yl)-1-phenylethyl)cyclopentyl)-1,1-dimethylurea], the IC50 turned out to be 1.13 µM.
The same measure, in the same setting: with `CS(=O)(=O)CO[C@H]1CCC[C@@H]1C(C#N)(c1ccccc1)C1CCN(CC2CN(c3ccc(S(=O)(=O)c4ccncc4)cc3)C2)CC1` (mixture of isomers) [compound 253, rac-2-((1R,2S)-2-((methylsulfonyl)methoxy)cyclopentyl)-2-phenyl-2-(1-((1-(4-(pyridin-4-ylsulfonyl)phenyl)azetidin-3-yl)methyl)piperidin-4-yl)acetonitrile] the figure was 14.4 µM.
In the case of `CN([C@H]1CCC[C@@H]1C(C#N)(c1ccccc1)C1CCN(CC2CN(c3ccc(S(=O)(=O)C4CC4)cc3)C2)CC1)S(C)(=O)=O` (mixture of isomers) [compound 273, rac-N-((1S,2R)-2-(cyano(1-((1-(4-(cyclopropylsulfonyl)phenyl)azetidin-3-yl)methyl)piperidin-4-yl)(phenyl)methyl)cyclopentyl)-N-methylmethanesulfonamide], the IC50 amounted to 37.6 µM.
In the case of `CS(=O)(=O)c1ccc(OCCCN2CCC(C3(C4CCCCC4)NCCc4ccccc43)CC2)cc1` (centres unmarked) [compound 295, 1-cyclohexyl-1-(1-(3-(4-(methylsulfonyl)phenoxy)propyl)piperidin-4-yl)-1,2,3,4-tetrahydroisoquinoline], the IC50 was 1.9 µM.
Same read-out and setting: with `CC(=O)O[C@H]1CCC[C@@H]1C(C#N)(c1cccc(F)c1)C1CCN(CC2CN(c3ccc(C#N)cc3)C2)CC1` (mixture of isomers) [compound 415, rac-(1S,2R)-2-(cyano(1-((1-(4-cyanophenyl)azetidin-3-yl)methyl)piperidin-4-yl)(3-fluorophenyl)methyl) cyclopentyl acetate] the figure was 0.016 µM.

The IC50 is the concentration needed to halve the response being measured.

The record behind these values is patent US10899738B2 (THE REGENTS OF THE UNIVERSITY OF MICHIGAN, priority 2016, dated 2021).
